# Results as given in patent publication US7229769B2, “Compositions and methods for detecting protease activity” (Illumina, Inc., priority 2005, dated 2007).
# Residues, ends and D or L forms follow the SMILES beside them. *: point of attachment. Cbz = O=C(OCc1ccccc1)*; CH2F = FC*
# Molecular target: T1, Caspase-3 (Homo sapiens, UniProt P42574)
# T1 sequence (P42574 29-175 limits assumed): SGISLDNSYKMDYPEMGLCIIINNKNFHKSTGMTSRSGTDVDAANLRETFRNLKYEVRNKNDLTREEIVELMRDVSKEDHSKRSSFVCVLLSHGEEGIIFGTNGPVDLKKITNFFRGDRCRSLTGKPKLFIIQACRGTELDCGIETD
# T1 sequence (P42574 176-277 limits assumed): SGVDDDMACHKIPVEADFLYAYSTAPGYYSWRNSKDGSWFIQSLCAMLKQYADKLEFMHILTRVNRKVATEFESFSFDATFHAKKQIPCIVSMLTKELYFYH
# Assay: Caspase-3 protease assay with protein-DNA conjugate substrate, streptavidin extraction, BeadArray detection; inhibition analysis
# Assay type: biochemical
# Conditions: end point assays, various concentrations of inhibitor vs. absence of inhibitor, FIG. 10
# Method: Caspase-3 protease activity was carried out as follows. Briefly, the caspase-3 substrate included a protein moiety (peptide) having a caspase-3 amino acid recognition sequence. The protein moiety was attached at its amino terminus to a FAM-labeled DNA moiety and at its carboxy terminus to a biotin. The enzymatic reactions were performed in 30 to 60 microliter volumes having substrate concentrations in the range of 20 nM to 150 nM. The enzyme concentrations ranged from a few ng/ml to a few mg/ml. The assay buffer was 50 mM Tris-HCL, pH 8.0, 1 mM CaCl2, and 0.1% Tween-20 (v/v). The assay was carried out at 37° C. at varying times from 5 minutes to twelve hours.
# Following incubation of the protease and substrate, the reaction mixture was extracted with streptavidin beads provided in molar excess for 15 minutes to remove uncleaved substrate (and cleaved protein fragments lacking the DNA moiety). Following removal of the streptavidin beads, the remaining mixture, containing FAM-labeled DNA fragments of the cleaved caspase-3 substrate, was diluted into GoldenGate™ hybridization buffer (Illumina, Inc., San Diego, Calif.) and hybridized onto a Sentrix® BeadArray Matrix for one hour at room temperature. The BeadArray matrix included nucleic acid probes that were complementary to the FAM-labeled DNA fragments. […]
structure (smiles),measurement,value
COC(=O)C[C@H](NC(=O)[C@H](C)NC(=O)[C@@H](NC(=O)OCc1ccccc1)C(C)C)C(=O)CF [ZVAD-FMK] (Cbz-Val-Ala-Asp(OMe)-CH2F),extent of inhibition of caspase-3 (mean signal intensity vs. time),as the concentration of inhibitor was increased the extent of inhibition was also increased
